Consider 32 compounds from ChEMBL document CHEMBL1148353, “Development of potent bifunctional endomorphin-2 analogues with mixed mu-/delta-opioid agonist and delta-opioid antagonist properties” (J Med Chem, 2004).

Assay [1] has as its target Opioid receptors; mu & delta (Rattus norvegicus) (UniProt P33533+P33535). Description: Ratio of binding affinity against rat brain delta opioid receptor to that of mu opioid receptor.
In assay [2] the target is Mu-type opioid receptor (Rattus norvegicus, UniProt P33535). Description: Binding affinity against rat brain Opioid receptor mu 1 using [3H]DAMGO radioligand.
The species named for assay [3] is Mus musculus. As to the kind of experiment: In vitro inhibitory concentration against electrically induced twitches in mouse vas deferens. Type of assay: functional.
The species entered for assay [4] is Cavia porcellus. As to the kind of experiment: In vitro inhibitory concentration against electrically induced twitches in guinea pig ileum. The format is functional.
The target in assay [5] is Delta-type opioid receptor (Rattus norvegicus, UniProt P33533). As to the kind of experiment: Binding affinity against rat brain opioid receptor delta 1 using [3H]DPDPE radioligand.

Where a SMILES comes first, the peptide text is derived from it. [ ]: non-standard residue; d: D form. The star is where a group is joined. Dmt = Cc1cc(O)cc(C)c1C[C@H](N)C(=O)O; NHPhenethyl = c1ccc(CCN*)cc1; NHBn = c1ccc(CN*)cc1; NHPh = c1ccc(N*)cc1; NHtBu = CC(C)(C)N*

Mu-type opioid receptor, sequence (P33535 whole entry): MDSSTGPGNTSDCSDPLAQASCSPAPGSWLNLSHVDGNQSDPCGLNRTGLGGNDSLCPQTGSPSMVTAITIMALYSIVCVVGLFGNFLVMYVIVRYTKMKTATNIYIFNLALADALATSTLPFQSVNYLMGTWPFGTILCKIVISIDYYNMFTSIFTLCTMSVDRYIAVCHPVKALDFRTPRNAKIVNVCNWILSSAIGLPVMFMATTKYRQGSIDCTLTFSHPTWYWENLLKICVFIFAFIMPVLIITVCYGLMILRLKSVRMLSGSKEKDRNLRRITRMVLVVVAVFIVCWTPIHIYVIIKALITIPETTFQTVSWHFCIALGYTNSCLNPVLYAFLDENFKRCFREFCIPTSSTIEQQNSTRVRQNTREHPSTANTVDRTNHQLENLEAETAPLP
Opioid receptors; mu & delta (Rattus norvegicus), sequence (P33533 whole entry, looked up): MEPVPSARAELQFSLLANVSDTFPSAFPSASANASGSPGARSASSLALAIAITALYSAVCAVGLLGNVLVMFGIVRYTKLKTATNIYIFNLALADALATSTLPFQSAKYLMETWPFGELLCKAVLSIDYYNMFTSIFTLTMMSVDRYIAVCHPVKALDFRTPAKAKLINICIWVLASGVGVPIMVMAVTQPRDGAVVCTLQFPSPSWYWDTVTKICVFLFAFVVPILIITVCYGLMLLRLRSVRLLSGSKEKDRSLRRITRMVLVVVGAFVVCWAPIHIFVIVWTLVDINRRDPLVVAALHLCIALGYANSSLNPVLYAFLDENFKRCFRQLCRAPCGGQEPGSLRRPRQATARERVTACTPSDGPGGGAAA
Opioid receptors; mu & delta (Rattus norvegicus), sequence (P33535 whole entry, looked up): as the sequence (P33535 whole entry) above
Delta-type opioid receptor, sequence (P33533 whole entry): as the sequence (P33533 whole entry, looked up) above

Consider `Cc1cc(O)cc(C)c1C[C@H](N)C(=O)N1CCC[C@H]1C(=O)N[C@@H](Cc1ccccc1)C(=O)N[C@@H](Cc1ccccc1)C(N)=O`, for which, in assay [1], the Ratio is 188. Moreover, the Ki in assay [2] amounted to 0.15 nM; in assay [5] it was 28.2 nM. For the same compound, the values for the IC50 in assay [3] and in assay [4] were 1.87 nM and 0.07 nM, respectively.

As to `N[C@@H](Cc1ccc(O)cc1)C(=O)N1CCC[C@H]1C(=O)N[C@@H](Cc1ccccc1)C(=O)Nc1ccccc1` (H-Tyr-Pro-Phe-NHPh), in assay [1], the Ratio amounted to 692. In addition, the Ki in assay [2] amounted to 33.5 nM; in assay [5] it was 23200 nM.

Turning to `N[C@@H](Cc1ccc(O)cc1)C(=O)N1CCC[C@H]1C(=O)N[C@@H](Cc1ccccc1)C(=O)Nc1cccc2cccnc12`, in assay [1], the Ratio is 68. Moreover, the inhibition constant Ki in assay [2] is 249 nM; in assay [5], 17100 nM.

`Cc1cc(O)cc(C)c1C[C@H](N)C(=O)N1CCC[C@H]1C(=O)N[C@@H](Cc1ccccc1)C(=O)NCc1ccccc1` (H-[Dmt]-Pro-Phe-NHBn): the results for the Ki in assay [2] and in assay [5] were 0.52 nM and 13.8 nM, respectively. Also, the half-maximal inhibitory concentration (IC50) in assay [3] was above 10000 nM; in assay [4], 22 nM.

On to `N[C@@H](Cc1ccc(O)cc1)C(=O)N1CCC[C@H]1C(=O)N[C@@H](Cc1ccccc1)C(=O)NCc1ccccc1` (H-Tyr-Pro-Phe-NHBn), for which the Ratio in assay [1] was 80. Moreover, the values for the Ki in assay [2] and in assay [5] were 21.6 nM and 1730 nM, respectively.

As to `Cc1cc(O)cc(C)c1C[C@H](N)C(=O)N1CCC[C@H]1C(=O)N[C@@H](Cc1ccccc1)C(=O)Nc1cccc2ccccc12`, the Ratio in assay [1] turned out to be 68. Further, the IC50 was determined as 5.47 nM in assay [3] and 0.49 nM in assay [4]. In assay [5], this compound returned an inhibition constant (Ki) of 19.9 nM.

Consider `Cc1cc(O)cc(C)c1C[C@H](N)C(=O)N1CCC[C@H]1C(=O)N[C@@H](Cc1ccccc1)C(=O)Nc1ccc2ncccc2c1`, for which the Ki in assay [2] is 0.22 nM; in assay [5] it was 46.6 nM. Besides, the IC50 in assay [3] was above 10000 nM; in assay [4], 6.21 nM.

On to `N[C@@H](Cc1ccc(O)cc1)C(=O)N1CCC[C@H]1C(=O)N[C@@H](Cc1ccccc1)C(=O)Nc1cccc2ccccc12`, for which the Ratio in assay [1] is 1510. Moreover, the figures for the Ki in assay [2] and in assay [5] were 2.41 nM and 3640 nM, respectively.

With `Cc1cc(O)cc(C)c1C[C@H](N)C(=O)N1CCC[C@H]1C(=O)N[C@@H](Cc1ccccc1)C(=O)Nc1cccc2cccnc12`, the inhibition constant (Ki) in assay [2] turned out to be 0.49 nM; in assay [5], 33.1 nM. Moreover, the IC50 turned out to be 2980 nM in assay [3] and 445 nM in assay [4].

With `N[C@@H](Cc1ccc(O)cc1)C(=O)N1CCC[C@H]1C(=O)N[C@@H](Cc1ccccc1)C(=O)Nc1cnc2ccccc2c1`, in assay [1], the Ratio amounted to 333. In addition, the inhibitory constant (Ki) was determined as 55.8 nM in assay [2] and 18600 nM in assay [5].

`CC(C)(C)NC(=O)[C@H](Cc1ccccc1)NC(=O)[C@@H]1CCCN1C(=O)[C@@H](N)Cc1ccc(O)cc1` (H-Tyr-Pro-Phe-NHtBu): the Ratio in assay [1] was found to be 680. Moreover, the Ki in assay [2] came to 19.6 nM; in assay [5], 13300 nM.

For `N[C@@H](Cc1ccc(O)cc1)C(=O)N1CCC[C@H]1C(=O)N[C@@H](Cc1ccccc1)C(=O)Nc1ccccn1`, the Ratio in assay [1] amounted to 742. Also, the values for the Ki in assay [2] and in assay [5] were 26.5 nM and 19700 nM, respectively.

With `N[C@@H](Cc1ccc(O)cc1)C(=O)N1CCC[C@H]1C(=O)N[C@@H](Cc1ccccc1)C(=O)Nc1cccc2cnccc12`, the Ratio in assay [1] amounted to 57. The values for the inhibition constant (Ki) in assay [2] and in assay [5] were 61.1 nM and 3480 nM, respectively.

Consider `Cc1cc(O)cc(C)c1C[C@H](N)C(=O)N1CCC[C@H]1C(=O)N[C@@H](Cc1ccccc1)C(=O)Nc1ccccc1` (H-[Dmt]-Pro-Phe-NHPh), for which the Ki in assay [2] turned out to be 1.11 nM; in assay [5], 20.6 nM. Also, the IC50 was above 10000 nM in assay [3] and 37.7 nM in assay [4].

Turning to `Cc1cc(O)cc(C)c1C[C@H](N)C(=O)N1CCC[C@H]1C(=O)N[C@@H](Cc1ccccc1)C(=O)NCCc1ccccc1` (H-[Dmt]-Pro-Phe-NHPhenethyl), in assay [1], the Ratio is 35. The Ki in assay [2] was 0.51 nM; in assay [5] it was 18 nM. Moreover, the IC50 was above 10000 nM in assay [3] and 5.03 nM in assay [4].

On to `Cc1cc(O)cc(C)c1C[C@H](N)C(=O)N1CCC[C@H]1C(=O)N[C@@H](Cc1ccccc1)C(N)=O` (H-[Dmt]-Pro-Phe-NH2), for which, in assay [1], the Ratio was determined as 443. Besides, the Ki was found to be 0.12 nM in assay [2] and 53.2 nM in assay [5]. In addition, the IC50 in assay [3] amounted to 113 nM; in assay [4] it was 2.33 nM.

Turning to `Cc1cc(O)cc(C)c1C[C@H](N)C(=O)N1CCC[C@H]1C(=O)N[C@@H](Cc1ccccc1)C(=O)Nc1cnc2ccccc2c1`, in assay [1], the Ratio was found to be 577. The inhibition constant Ki in assay [2] worked out at 0.33 nM; in assay [5], 190 nM. The IC50 is above 10000 nM in assay [3] and 9.14 nM in assay [4].

In the case of `N[C@@H](Cc1ccc(O)cc1)C(=O)N1CCC[C@H]1C(=O)N[C@@H](Cc1ccccc1)C(=O)Nc1ccc2ncccc2c1`, in assay [1], the Ratio is 136. Also, the Ki in assay [2] came to 72.9 nM; in assay [5], 9880 nM.

Turning to `N[C@@H](Cc1ccc(O)cc1)C(=O)N1CCC[C@H]1C(=O)N[C@@H](Cc1ccccc1)C(=O)NC12C[C@H]3C[C@@H](C1)C[C@@H](C2)C3`, the Ratio in assay [1] was found to be 265. Further, the Ki came out at 23.6 nM in assay [2] and 6260 nM in assay [5].

In the case of `Cc1cc(O)cc(C)c1C[C@H](N)C(=O)N1CCC[C@H]1C(=O)N[C@@H](Cc1ccccc1)C(=O)Nc1ccncc1`, the values for the Ki in assay [2] and in assay [5] were 0.36 nM and 52.7 nM, respectively. For the same compound, the IC50 in assay [3] stood at 10000 nM; in assay [4], 11.8 nM.

Regarding `NC(=O)[C@H](Cc1ccccc1)NC(=O)[C@@H]1CCCN1C(=O)[C@@H](N)Cc1ccc(O)cc1` (H-Tyr-Pro-Phe-NH2), in assay [1], the Ratio was found to be 343. The Ki in assay [2] is 46.3 nM; in assay [5] it was 15900 nM.

Take `N[C@@H](Cc1ccc(O)cc1)C(=O)N1CCC[C@H]1C(=O)N[C@@H](Cc1ccccc1)C(=O)Nc1ccncc1`: the Ratio in assay [1] worked out at 521. In addition, the inhibition constant Ki in assay [2] amounted to 48.2 nM; in assay [5], 25100 nM.

Regarding `N[C@@H](Cc1ccc(O)cc1)C(=O)N1CCC[C@H]1C(=O)N[C@@H](Cc1ccccc1)C(=O)NCCc1ccccc1` (H-Tyr-Pro-Phe-NHPhenethyl), in assay [1], the Ratio came to 324. Further, the Ki in assay [2] was 13.3 nM; in assay [5], 4310 nM.

Take `N[C@@H](Cc1ccc(O)cc1)C(=O)N1CCC[C@H]1C(=O)N[C@@H](Cc1ccccc1)C(=O)NC1CCCCC1`: the Ratio in assay [1] was found to be 1400. Further, the Ki is 5.79 nM in assay [2] and 8110 nM in assay [5].

As to `Cc1cc(O)cc(C)c1C[C@H](N)C(=O)N1CCC[C@H]1C(=O)N[C@@H](Cc1ccccc1)C(=O)Nc1cccc2ncccc12`, the Ratio in assay [1] was 283. The inhibition constant (Ki) in assay [2] stood at 0.11 nM; in assay [5] it was 30 nM. The IC50 in assay [3] turned out to be 0.616 nM; in assay [4], 0.26 nM.

On to `Cc1cc(O)cc(C)c1C[C@H](N)C(=O)N1CCC[C@H]1C(=O)N[C@@H](Cc1ccccc1)C(=O)Nc1cccc2cnccc12`, for which the inhibition constant (Ki) in assay [2] was 0.19 nM; in assay [5] it was 98.3 nM. For the same compound, the IC50 was above 10000 nM in assay [3] and 0.94 nM in assay [4].

Consider `N[C@@H](Cc1ccc(O)cc1)C(=O)N1CCC[C@H]1C(=O)N[C@@H](Cc1ccccc1)C(=O)Nc1cccc2ncccc12`, for which the Ratio in assay [1] came to 3110. Besides, the results for the Ki in assay [2] and in assay [5] were 4.07 nM and 12700 nM, respectively.

For `N[C@@H](Cc1ccc(O)cc1)C(=O)N1CCC[C@H]1C(=O)N[C@@H](Cc1ccccc1)C(=O)Nc1cccnc1`, the Ratio in assay [1] was 400. The inhibitory constant (Ki) in assay [2] amounted to 48.5 nM; in assay [5], 19400 nM.

As to `N[C@@H](Cc1ccc(O)cc1)C(=O)N1CCC[C@H]1C(=O)N[C@@H](Cc1ccccc1)C(=O)NC1C2C[C@H]3C[C@@H](C2)C[C@@H]1C3` (some centres undefined), in assay [1], the Ratio came out at 844. Besides, the inhibition constant Ki in assay [2] is 6.59 nM; in assay [5], 5560 nM.

Take `Cc1cc(O)cc(C)c1C[C@H](N)C(=O)N1CCC[C@H]1C(=O)N[C@@H](Cc1ccccc1)C(=O)Nc1cccnc1`: the results for the inhibition constant Ki in assay [2] and in assay [5] were 0.17 nM and 288 nM, respectively. Further, the half-maximal inhibitory concentration (IC50) in assay [3] is above 10000 nM; in assay [4] it was 72.8 nM.

As to `NC(=O)[C@H](Cc1ccccc1)NC(=O)[C@H](Cc1ccccc1)NC(=O)[C@@H]1CCCN1C(=O)[C@@H](N)Cc1ccc(O)cc1` [ENDOMORPHIN 2], the values for the IC50 in assay [3] and in assay [4] were 344 nM and 5.79 nM, respectively.

On to `Cc1cc(O)cc(C)c1C[C@H](N)C(=O)N1CCC[C@H]1C(=O)N[C@@H](Cc1ccccc1)C(=O)Nc1ccccn1`, for which the inhibitory constant (Ki) in assay [2] came to 0.13 nM; in assay [5], 157 nM. Further, the IC50 in assay [3] was above 10000 nM; in assay [4], 15 nM.

As usually defined, the Ki is a measure of affinity in units of concentration, obtained from inhibition or displacement. Read a high Ki as weaker binding. As a reminder, the IC50 is the concentration that inhibits the measured activity by half.
